Tested on: AVEFA (Avena fatua, wild oat)
Experiment: greenhouse experiment: herbicidal action, scale from 0 to 100, synergism by Colby's equation
Type: in vivo
Details: scale 0 to 100, test period 20 days
Experimental: However, the weed control afforded by the compounds, mixtures or compositions is not limited to these species. The analysis of synergism or antagonism between the mixtures or compositions is determined using Colby's equation.
Synergism can be described as an interaction where the combined effect of two or more compounds is greater than the sum of the individual effects of each of the compounds. The presence of a synergistic effect in terms of percent control, between two mixing partners (X and Y) can be calculated using the Colby equation (Colby, S. R., 1967, Calculating Synergistic and Antagonistic Responses in Herbicide Combinations, Weeds, 15, 21-22):
When the observed combined control effect is greater than the expected (calculated) combined control effect (E), then the combined effect is synergistic.
The culture containers used were plastic flowerpots containing loamy sand with approximately 3.0% of humus as the substrate. The seeds of the test plants were sown separately for each species. For pre-emergence treatment, the active ingredients, which had been suspended or emulsified in water, were applied directly after sowing by means of finely distributing nozzles. […] During this time, the plants were tended, and their response to the individual treatments was evaluated. […]

CS(=O)(=O)c1cc(C(F)(F)F)ccc1C(=O)c1cnoc1C1CC1 [Isoxaflutole, isoxaflutole]
Herbicidal action against AVEFA, Found (Isoxaflutole 12.5 g/ha alone): 0 | Herbicidal action against AVEFA, Found (Isoxaflutole 25 g/ha alone): 0

From patent US20210267201A1, “HERBICIDAL MIXTURES COMPRISING ISOXAFLUTOLE, DIMETHENAMID OR DIMETHENAMID-P AND AN IMIDAZOLINONE HERBICIDE; AND THEIR USE IN SOYBEAN AND COTTON CULTURES” (BASF SE, priority 2018, published 2021)
